From patent US20060051316A1, “Remedy” (priority 2002, published 2006)

Tests used:
[1] = tested on: BMP-2 production of human osteosarcoma cell strain HuO9; assay: Enhancing activity for BMP-2 production, enzyme immunoassay of culture medium; format: cell-based; conditions: for Enhancing Activity for BMP-2 Production: HuO9; for Enhancement of BMP-2 production (result in words): HuO9 cells
Procedure: Human osteosarcoma cell strain HuO9 was suspended in a DMEM medium (manufactured by Bio Whittaker) containing 10% fetal bovine serum (manufactured by Bio Whittaker) so as to have a concentration of 1×10^5 cells/ml. The suspension was put into a 96-well plate in an amount of 0.1 ml per well, and the cells were cultured sterilely. After the cells were cultured for 2 days, the medium was exchanged with a fresh medium. The fucoidan derived from Kjellmaniella crassifolia obtained in item (1) of Reference Example 1 was added thereto as a sample, and the cells were cultured for 48 hours. Next, the concentration of bone morphogenetic protein-2 (BMP-2) in the culture medium was measured with enzyme immunoassay method (BMP-2 Immunoassay: manufactured by GT). The enhancing activity for BMP-2 production was expressed by setting as a control one without addition of the sample, and defining the BMP-2 concentration in the cell culture medium (the amount of BMP-2 production of a cell) as 100%.

[2] = tested on: Mouse embryo derived cell strain C3H10T1/2; assay: Induction of differentiation into osteoblasts, alkaline phosphatase activity in cells; format: cell-based; conditions: for Alkaline Phosphatase Activity: 7 days, C3H10T1/2, control = 100%, average of two experiments
Procedure: Mouse embryo derived cell strain C3H10T1/2 was suspended in a DMEM medium containing 10% fetal bovine serum so as to have a concentration of 3×10^4 cells/ml. The suspension was put into a 96-well plate in an amount of 0.1 ml per well, and the cells were cultured sterilely. After the cells were cultured for 3 days, the medium was exchanged with a fresh medium. Heparan sulfate, or the Chlorella sulfated polysaccharide fraction CSP-I or CPS-II obtained in Reference Example 4 was added thereto as a sample, and the cells were cultured for 7 days. Subsequently, differentiation of C3H10T1/2 into osteoblasts was determined using an increase of the alkaline phosphatase activity in the cells as an index. The cells were washed once with PBS. One-hundred microliters of a reaction substrate solution (100 mM diethanolamine buffer pH 10.0, 2 mM magnesium chloride, 1 mM p-nitrophenyl phosphoric acid) was added thereto, and the reaction was carried out at 37° C. for 30 minutes. Next, 100 μl of 0.2 N sodium hydroxide was added thereto to stop the reaction, and the amount of p-nitrophenol which was released was determined with an absorbance at 405 nm. The alkaline phosphatase activity when a sample was added was expressed by setting as a control one without addition of the sample, wherein the alkaline phosphatase activity of the control was defined as 100%. The activity indicates an induction activity of differentiation into osteoblasts. The experiments were carried out twice, and the average value was taken.

[3] = 10 μg/ml, control = 100% (0.110 ng/ml)
[4] = 100 μg/ml, control = 100% (0.110 ng/ml)
[5] = 10 μg/ml, control = 100% (0.083 ng/ml)
[6] = 100 μg/ml, control = 100% (0.083 ng/ml carrageenans, 0.070 ng/ml low-molecular-weight heparin)
[7] = 500 μg/ml, control = 100% (0.201 ng/ml for 7-12SFd-F, 0.130 ng/ml for chondroitin sulfate B and pectic acid)
[8] = 1000 μg/ml, control = 100% (0.201 ng/ml for 7-12SFd-F, 0.130 ng/ml for chondroitin sulfate B and pectic acid)

dextran sulfate
Enhancing Activity for BMP-2 Production [1, 3]: 2789% | Enhancing Activity for BMP-2 Production [1, 4]: 2984% | Enhancement of BMP-2 production (result in words) [1]: enhance BMP-2 production in a concentration-dependent manner

carrageenan κ
Enhancing Activity for BMP-2 Production [1, 5]: 219.3% | Enhancing Activity for BMP-2 Production [1, 6]: 263.3% | Enhancement of BMP-2 production (result in words) [1]: enhance BMP-2 production in a concentration-dependent manner

pectic acid
Enhancing Activity for BMP-2 Production [1, 7]: 220.3% | Enhancing Activity for BMP-2 Production [1, 8]: 242.1% | Enhancement of BMP-2 production (result in words) [1]: enhance BMP-2 production in a concentration-dependent manner

Heparan sulfate
Alkaline Phosphatase Activity ([2]; 10 μg/ml): 132.2% | Alkaline Phosphatase Activity ([2]; 100 μg/ml): 178.0% | Induction of differentiation into osteoblasts (result in words) ([2]; C3H10T1/2 cells): induce differentiation into osteoblasts in a concentration-dependent manner

heparin
Enhancing Activity for BMP-2 Production [1, 3]: 435.1% | Enhancing Activity for BMP-2 Production [1, 4]: 1339% | Enhancement of BMP-2 production (result in words) [1]: enhance BMP-2 production in a concentration-dependent manner

low-molecular-weight heparin
Enhancing Activity for BMP-2 Production [1, 6]: 390.0% | Enhancing Activity for BMP-2 Production ([1]; 1000 μg/ml, control = 100% (0.070 ng/ml)): 807.1% | Enhancement of BMP-2 production (result in words) [1]: enhance BMP-2 production in a concentration-dependent manner

carrageenan λ
Enhancing Activity for BMP-2 Production [1, 5]: 359.6% | Enhancing Activity for BMP-2 Production [1, 6]: 485.5% | Enhancement of BMP-2 production (result in words) [1]: enhance BMP-2 production in a concentration-dependent manner

carrageenan ι
Enhancing Activity for BMP-2 Production [1, 5]: 201.2% | Enhancing Activity for BMP-2 Production [1, 6]: 517.5% | Enhancement of BMP-2 production (result in words) [1]: enhance BMP-2 production in a concentration-dependent manner

O=C(/C=C/c1ccc(O)c(O)c1)O[C@@H]1C[C@](O)(C(=O)O)C[C@@H](O)[C@H]1O [Chlorogenic Acid, chlorogenic acid]
Enhancing Activity for BMP-2 Production ([1]; 88.6 μg/ml, control = 100% (0.041 ng/ml)): 319.5% | Enhancing Activity for BMP-2 Production ([1]; 177.2 μg/ml, control = 100% (0.041 ng/ml)): 320.4% | Enhancement of BMP-2 production (result in words) [1]: enhance BMP-2 production in a concentration-dependent manner

chondroitin sulfate B
Enhancing Activity for BMP-2 Production [1, 7]: 524.5% | Enhancing Activity for BMP-2 Production [1, 8]: 846.2% | Enhancement of BMP-2 production (result in words) [1]: enhance BMP-2 production in a concentration-dependent manner
